{"source": "patent US20110294890A1", "about": "“Neramexane for the treatment or prevention of inner ear disorders” (MERZ PHARMA GmbH & CO. KGaA, priority 2010, published 2011)", "tested_on": "subjects with subjective tinnitus of at least moderate severity", "assay": "Double blind placebo controlled Phase III clinical trial of neramexane for treatment of tinnitus (TBF-12 total score)", "type": "in vivo, human", "conditions": "for Change in the TBF-12 total score from baseline to Week 17/EOT, LSmean: 50/75 mg/d, mean adjusted for covariates (ANCOVA); for Change in the TBF-12 total score from baseline to Week 17/EOT, LSmean / Change in the TBF-12 total score from baseline to Week 17/EOT, Mean change (SD): 17 weeks; for Change in the TBF-12 total score from baseline to Week 17/EOT, LSmean / Change in the TBF-12 total score from baseline to Week 17/EOT, Mean change (SD) / Comparison between treatment groups, LSmean (ner − pla), change in TBF-12 total score: FAS-LOCF; for Change in the TBF-12 total score from baseline to Week 17/EOT, Mean change (SD): neramexane mesylate 50/75 mg/d by body weight; for Comparison between treatment groups, LSmean (ner − pla), change in TBF-12 total score: estimated difference Neramexane − Placebo from ANCOVA", "experimental": "The objective of this clinical trial was to assess the efficacy of neramexane as a treatment for tinnitus. The primary objective of this 17 weeks double-blind, randomized placebo-controlled study was to compare the efficacy, tolerability and safety of neramexane mesylate at two different, weight-adapted dosages (50 or 75 mg/d) with placebo in subjects with subjective tinnitus of at least moderate severity.\nIn a double-blind, multicenter, randomized, placebo-controlled, parallel-group study, the efficacy of neramexane in subjects suffering from tinnitus of at least moderate severity was assessed. A total of 411 patients, who fulfilled particular inclusion criteria and met none of particular exclusion criteria, were randomized to one of two double-blind treatment groups (neramexane mesylate 50 or 75 mg/d depending on body weight, or placebo).\nSubjects were treated for 17 weeks with neramexane or placebo including a four- resp. five-week up-titration period, depending on study drug dose, followed by 30 to 35 days treatment-free observational period. Alternatively to treatment-free observational period, subjects could immediately at Week 17 start with a one-year open label treatment study.\nMain inclusion criteria were: • Diagnosis of “subjective tinnitus” • Tinnitus duration of at least 3 months and less or equal to 12 months (subacute tinnitus) • Persistent, uni- or bilateral tinnitus • THI-12≧9 (=at least moderate tinnitus severity) • Hospital Anxiety and Depression (HADS) subscores for depression ≦10 and for anxiety ≦10\nMain exclusion criteria were: • Intermittent or pulsatile tinnitus • Tinnitus as a concomitant symptom of an otological/neurological disease • Concomitant tinnitus treatment • Application for a pension/retirement pay or granted pension/retirement because of tinnitus.\nPatients with a target daily dose of 50 mg neramexane mesylate (<90 kg body weight) were to reach steady state after four weeks, patients with a target total daily dose of 75 mg neramexane mesylate (≧90 kg body weight) were to reach steady state after five weeks of treatment. For patients who experienced dose limiting adverse events with the 75 mg dose, the dosage was reduced by switching the patient to 50 mg/day. Patients unable to tolerate a minimum dosage of 50 mg/day discontinued.\nPatient eligibility for the study was evaluated via a check of inclusion/exclusion criteria. The subject completed a Tinnitus-Beeinträchtigungs-Fragebogen (TBF-12=Tinnitus. Handicap Inventory (THI-12)) (i.e., a 12-item modified and validated version (Greimel K V et al., Tinnitus-Beeinträchtigungs-Fragebogen (TBF-12). Manual. Frankfurt am Main: Swets & Zeitlinger B. V.; 2000) of the 25-item Tinnitus Handicap Inventory or THI (Newman C W, et al. Development of the Tinnitus Handicap Inventory. Arch Otolaryngol Head Neck Surg 1996; 122(2): 143-148; Newman C W, et al. Psychometric adequacy of the Tinnitus Handicap Inventory (THI) for evaluating treatment outcome. J Am Acad Audiol 1998; 9(2): 153-160.)). The TBF-12 items can be grouped in 2 factorial scores: an emotional-cognitive and a functional-communicational factor. At Visit 1. patients also completed a Tinnitus Rating Scale (TRS, Likert scores on Tinnitus Loudness, Tinnitus Impact on Life, and Tinnitus Annoyance), and the Hospital Anxiety and Depression Scale Audiology/psychoacoustic measurements were performed unless results from previous examinations performed no more than one year prior to Screening were available.\nVisit 7 (Week 17, end of treatment (EOT)). This visit occurred at the end of the 12-week fixed-dose double-blind treatment period. This visit was also to be performed for patients who discontinued prematurely. The subject was asked about adverse events and changes in concomitant medication/disease, which changes are documented. A clinical laboratory evaluation was performed as well as ECG and physical examination (including body weight). Blood samples were collected in order to determine neramexane concentration. […]"}
{"smiles": "CC1(C)CC(C)(C)CC(C)(N)C1", "note": "[Neramexane, 1-amino-1,3,3,5,5-pentamethylcyclohexane]", "values": [{"measurement": "Change in the TBF-12 total score from baseline to Week 17/EOT, LSmean", "setting": "Females, N=74", "value": "−3.8"}, {"measurement": "Change in the TBF-12 total score from baseline to Week 17/EOT, Mean change (SD)", "setting": "Females, N=74", "value": "−3.1 (4.2)"}, {"measurement": "Comparison between treatment groups, LSmean (ner − pla), change in TBF-12 total score", "setting": "Females, P-value 0.0122", "value": "−1.7"}, {"measurement": "Change in the TBF-12 total score from baseline to Week 17/EOT, LSmean", "setting": "Total population, N=203", "value": "−3.0"}, {"measurement": "Change in the TBF-12 total score from baseline to Week 17/EOT, Mean change (SD)", "setting": "Total population, N=203", "value": "−2.5 (4.3)"}, {"measurement": "Comparison between treatment groups, LSmean (ner − pla), change in TBF-12 total score", "setting": "Total population, P-value 0.1997", "value": "−0.5"}, {"measurement": "Improvement for the treatment of tinnitus in subgroups of women", "setting": "women 26 to 65 or 46 to 65 years of age, and/or free from clinical signs of depression (HADS-D 7 or less)", "value": "an improvement"}, {"measurement": "Improvement for the treatment of tinnitus in women (TBF-12 total score)", "setting": "women, compared to the effect found for the total patient population", "value": "statistically significant improvement"}]}
